“Also recorded” adds a separate entry of the source. Where a name gives a salt, the structure may show the parent alone. Read-outs that look alike come from different tables or passages of the source.
What was measured:
[1] = target: T1, δ opioid receptor (DOR) (Homo sapiens, UniProt P41143); experiment: Competitive radioligand binding assay, DOR
T1 construct: expressed in transfected cells; host or cells: CHO (hDOR-CHO), membrane preparation
Method: (§1) The competition binding assay was performed using monoclonal mouse opioid receptors expressed in CHO cell lines (monoclonal human δ opioid receptor was used for the DOR assay).
(§2) The bound radioligand was separated using a Brandel harvester. Specific binding to the MOR, KOR, and DOR was calculated by subtracting the binding observed in the presence of 5 μM naltrexone, U50488, and SNC80, respectively, from the binding in their absence. Relative affinity values (IC50) were determined by fitting displacement binding inhibition data to a nonlinear regression model using GraphPad Prism 8.0 (GraphPad Software, San Diego, CA). The % inhibition was calculated using the formula: % inhibition = 100% - [(binding with the tested compound - nonspecific binding)/specific binding] × 100%. The IC50 values were converted to Ki values using the Cheng-Prusoff equation: Ki = IC50/ [1 + ([L*]/KD)], where [L*] is the concentration of the radioligand and KD is the KD of the radioligand.[68]

[2] = target: T2, κ opioid receptor (KOR) (Mus musculus, UniProt P33534); experiment: Competitive radioligand binding assay, KOR; conditions: for Selectivity κ/μ: ratio of Ki values
T2 construct: expressed in transfected cells; host or cells: CHO (mKOR-CHO), membrane preparation
Method: as §1, §2

[3] = target: T3, μ opioid receptor (MOR) (Mus musculus, UniProt P42866); experiment: Competitive radioligand binding assay, MOR
T3 construct: expressed in transfected cells; host or cells: CHO (mMOR-CHO), membrane preparation
Method: as §1, §2

[4] = tested on: Swiss Webster mice; experiment: Warm-water tail immersion assay, agonism (acute antinociception); conditions: single dose of 10 mg/kg s.c., n = 6, vs 10 mg/kg morphine
[5] = target: T4, MOR (Mus musculus, UniProt P42866); experiment: MOR [35S]GTPγS functional assay; type: biochemical; conditions: for Emax: read-out: MOR [35S]GTPγS Binding %Emax of DAMGO, relative to 3 μM DAMGO, mean ± SEM
T4 construct: expressed in transfected cells; host or cells: CHO (MOR-CHO), membrane preparation
Method: (§3) The [^35S]GTPγS functional assay was used to assess the efficacy of compounds at the MOR, KOR, and DOR. In this assay, 10 μg of MOR-CHO/KOR-CHO/DOR-CHO membrane protein was incubated in 500 μL of TME with 100 mM NaCl, 20 μM GDP, 0.1 nM [^35S]GTPγS, and varying concentrations of the compound for 1.5 h in a 30 °C water bath. Protein concentration was adjusted using the Bradford protein assay. […] After incubation, bound radioactivity was separated by filtration through GF/B glass fiber filters and measured by liquid scintillation counting. All assays were performed in duplicate and repeated at least three times. Net stimulated [35S]GTPγS binding was calculated as agonist-stimulated minus basal binding.

[6] = target: T5, KOR (Mus musculus, UniProt P33534); experiment: KOR [35S]GTPγS functional assay; type: biochemical
T5 construct: expressed in transfected cells; host or cells: CHO (KOR-CHO), membrane preparation
Method: as §3

[7] = target: T6, DOR (Homo sapiens, UniProt P41143); experiment: DOR [35S]GTPγS functional assay; type: biochemical
T6 construct: expressed in transfected cells; host or cells: CHO (DOR-CHO), membrane preparation
Method: as §3

[8] = tested on: morphine-pelleted mice; experiment: In vivo opioid withdrawal studies in morphine-pelleted mice; parameters: species or system mouse; conditions: for Jumps, mean count / Paw tremors, mean count / Wet dog shake, mean count: 5 mg/kg s.c., counted over 20 min; for Precipitated withdrawal symptoms, in words: s.c.
Method: Swiss Webster mice (six males per group, weighing 25–35 g and aged 6–8 weeks) were used. Following a previously established protocol,[20] a 75 mg morphine pellet was implanted subcutaneously into the back of each mouse, and they were allowed to recover in their home cages. Prior to testing, the mice were habituated for 30 min in an open-topped, clear Plexiglas observation chamber (26 × 26 × 26 cm^3) with lines marking the floor into quadrants. […]. Withdrawal symptoms began within 3 min of antagonist administration. Escape jumps, paw tremors, and wet dog shakes were recorded by counting their occurrences over a 20 min period for each mouse. Results are expressed as the mean ± SEM.

[9] = target: T4, MOR; experiment: MOR calcium flux assay in Gαqi5-transfected mMOR-CHO cells; type: cell-based
[10] = tested on: Swiss Webster mice; experiment: Warm-water tail immersion assay, antagonism of morphine-induced antinociception
[11] = tested on: GI-tract motility; parameters: method as in PMID 22683223; conditions: cited from earlier work
[12] = tested on: Swiss Webster mice; parameters: method as in PMID 35255685; conditions: warm-water tail immersion; cited from earlier work
[13] = tested on: Swiss Webster mice; conditions: cited from earlier work; for %MPE in single dose antagonism assay: in the presence of morphine; for AD50 (95% CL) for counteracting morphine-induced antinociception: mice

SMILES	Ki [1] [nM]	Ki [2] [nM]	Selectivity κ/μ [2]	Ki [3] [nM]	EC50 [5] [nM]	Emax [5] [%]	Jumps, mean count [8]	Paw tremors, mean count [8]	Wet dog shake, mean count [8]	Precipitated withdrawal symptoms, in words [8]	IC50 [9] [nM]	%MPE in single dose antagonism assay [13] [%]	AD50 (95% CL) for counteracting morphine-induced antinociception [13]	also measured
O=C(N[C@H]1CC[C@@]2(O)[C@H]3Cc4ccc(O)c5c4[C@@]2(CCN3CC2CC2)[C@H]1O5)c1ccns1 [Compound 1, 17-Cyclopropylmethyl-3,14β-dihydroxy-4,5α-epoxy-6α-(5′-isothiazolylcarboxamido)-morphinan hydrochloride]	14.3 ± 0.66	1.81 ± 0.18	4	0.51 ± 0.08	4.93 ± 0.8	15.6 ± 1.11	–	–	–	–	–	–	–	Selectivity δ/μ ([1]; ratio of Ki values): 28; Antinociceptive effect (MPE) compared to morphine, in words [4]: significantly lower than that of morphine
O=C(N[C@@H]1CC[C@@]2(O)[C@H]3Cc4ccc(O)c5c4[C@@]2(CCN3CC2CC2)[C@H]1O5)c1nccs1 [Compound 14, 17-Cyclopropylmethyl-3,14β-dihydroxy-4,5α-epoxy-6β-(2′-thiazolylcarboxamido)-morphinan hydrochloride]	117 ± 23.6	0.75 ± 0.08	2	0.3 ± 0.04	0.56 ± 0.2	6.06 ± 0.52	58.8	45.7	17.7	fewer wet dog shakes and paw tremors at all testing doses than 1 mg/kg NLX	12.4 ± 1.18	–	–	EC50 [6]: 9.67 ± 1.81 nM; Emax ([6]; relative to 3 μM U50488H, mean ± SEM, read-out: KOR [35S]GTPγS binding % Emax of U50488H): 39.8 ± 2.82%; EC50 [7]: 44 ± 6.82 nM; Emax ([7]; relative to 3 μM SNC80, mean ± SEM, read-out: DOR [35S]GTPγS binding % Emax of SNC80): 25.9 ± 0.4%; Agonistic activity in increasing intracellular calcium, in words ([9]; compared to full MOR agonist DAMGO): no apparent agonism; also recorded: none of them showed any significant agonistic activity; AD50 (95% CL) for counteracting morphine-induced antinociception ([10]; mice, s.c., given 5 min before morphine): 0.23 (0.04–1.37) mg/kg; Antagonism of morphine's antinociception, in words ([10]; single dose of 10 mg/kg s.c. in the presence of morphine (10 mg/kg), n = 6): significantly antagonized
O=C(N[C@@H]1CC[C@@]2(O)[C@H]3Cc4ccc(O)c5c4[C@@]2(CCN3CC2CC2)[C@H]1O5)c1ccncc1 [NAP, 17-Cyclopropylmethyl-3,14β-Dihydroxy-4,5α-Epoxy-6β-[(4′-Pyridyl)Carboxamido]Morphinan]	–	–	–	–	–	–	–	–	–	–	–	–	–	ED50 in gastrointestinal (GI)-tract motility assay [11]: 8.8 µg/kg
O=C(N[C@H]1CC[C@@]2(O)[C@H]3Cc4ccc(O)c5c4[C@@]2(CCN3CC2CC2)[C@H]1O5)c1cccs1 [NAT, reference compound]	–	–	–	–	–	–	45.8	29.2	14.5	Significant withdrawal symptoms	42.1 ± 4.51	2.1 ± 1.7	0.42 (0.21–0.82) mg/kg	%MPE in single dose agonism assay [12]: 15.2 ± 8.8%
C=CCN1CC[C@]23c4c5ccc(O)c4O[C@H]2C(=O)CC[C@@]3(O)[C@H]1C5 [NLX, naloxone]	–	–	–	–	–	–	–	–	–	precipitated significant withdrawal symptoms	–	2.9 ± 1.3	0.05 (0.03–0.09) mg/kg	–
